Values after ≈ are worked out from the molar mass of the structure shown.

Data on 7 compounds can be found in patent US5670364A, “A83543 compounds and process for production thereof” (priority 1995, dated 1997).

The test system of one data set is Beet Armyworm. Nature of the data set: Mite/Insect Screen, beet armyworm (BAW). It counts as in vivo, Spodoptera exiqua. The settings on record: Spodoptera exigua, 144 h, 6 day. As for the experimental part:
(§1) The Formula 2 compounds were tested for miticidal and insecticidal activity in the following mite/insect screen. Each test compound was formulated by dissolving the compound in an acetone-alcohol (1:1) mixture containing 23 g of TOXIMUL R (sulfonate/nonionic emulsifier blend) and 13 g of TOXIMUL S (sulfonate/nonionic emulsifier blend) per liter. These mixtures were then diluted with water to give the indicated concentrations.
(§2) Two-spotted spider mites and cotton aphids were introduced on squash cotyledons and allowed to establish on both leaf surfaces. The leaves were then sprayed with 5 ml of test solutions using a DeVilbiss atomizing sprayer at 10 psi. Both surfaces of the leaves were covered until run off and then allowed to dry for one hour. After standard exposure periods percent mortality was evaluated. Additional insects were evaluated using similar formulations and evaluation procedures.

The next data set concerns German Cockroach. The experiment in a line: Mite/Insect Screen, German cockroach (GECR). It counts as in vivo. The settings on record: Blattella germanica. On the procedure:
as §1, §2

The next data set has as its system Cotton Aphid. The experiment in a line: Mite/Insect Screen, cotton aphid (CA). In kind it is in vivo, Aphis gossypii Glover. The settings on record: Aphis gossypii, 4-5 day. As for the experimental part: as §1, §2
The subject of a further data set is Aster Leafhopper. Nature of the data set: Mite/Insect Screen, aster leafhopper (ALH). The settings on record: Macrosteles fascifrons, 24 hr. It counts as in vivo. On the procedure:
as §1, §2

The next data set deals with Southern Corn Rootworm. The experiment in a line: Mite/Insect Screen, southern corn rootworm (SCRW). The settings on record: 264 h, 11 day. In kind it is in vivo, Diabrotica undecimpunctata howardi. As for the experimental part:
as §1, §2

The subject of another data set is Tobacco Budworm. The experiment in a line: Mite/Insect Screen, tobacco budworm (TBW). It counts as in vivo. The settings on record: Heliothis virescens, 144 h, 6 day; for inhibition at 50 ppm: 50 ppm (rate in parenthesis). On the procedure: as §1, §2
The test system of a further data set is Rootknot Nematode. The experiment in a line: Mite/Insect Screen, rootknot nematode (NEM). In kind it is in vivo, Meiiiodyne spp. The settings on record: 264 h, 11 day. As for the experimental part: as §1, §2
The subject of another data set is neonate tobacco budworm. The experiment in a line: LD50 against neonate tobacco budworm, petri dish assay. It counts as in vivo. The settings on record: Heliothis virescens; mean of two tests; mortality evaluated at 24 and 48 hours. As for the experimental part: Formula 2 compounds were evaluated in the following assay to determine the LD50 against neonate tobacco budworm (Heliothis virescens). A petri dish (100 mm×20 mm) is inverted and the lid lined with a #1 qualitative filter paper. Ten neonate larvae are placed in each dish and a 1 ml test solution is pipetted onto the insects. The petri dish bottom is then placed on the lid to contain the larvae. At 1 hour after treatment, a small piece of Heliothis diet (modified slurry, Southland Products, Lake Village, AR) is added to each dish. The mortality is evaluated at 24 and 48 hours. The tests were run in triplicate.

A further data set concerns Two-spotted Spider Mite. Nature of the data set: Mite/Insect Screen, two-spotted spider mite (TSSM). In kind it is in vivo. The settings on record: Tetranychus urticae, 4-5 day; for inhibition at 50 ppm: 50 ppm (rate in parenthesis). On the procedure: as §1, §2
The test system of another data set is adult stable fly. Nature of the data set: in vitro activity against adult stable fly. It counts as in vivo. The settings on record: Stomoxys calcitrans, 48 hours. On the procedure:
(§3) The Formula 2 compounds are also active against members of the insect order Diptera. Tables XI and XII summarize the in vitro studies of the Formula 2 compounds against blowfly larvae and adult stable fly at 48 hours.

The test system of a further data set is blowfly larvae. Nature of the data set: in vitro activity against blowfly larvae. In kind it is in vivo. The settings on record: 48 hours. On the procedure: as §3

With `CCC1CCCC(OC2CCC(NC)C(C)O2)C(C)C(=O)C2=CC3C(C=CC4CC(OC5OC(C)C(O)C(OC)C5OC)CC43)C2CC(=O)O1` (stereo not shown) [N-demethyl-K, N-demethyl-A83543K], the inhibition – broadly, the drop in the measured response relative to a control, in per cent – at 200 ppm was 100% in the data set with Beet Armyworm; 0% in the data set with German Cockroach (168 h, 7 day); 20% in the data set with German Cockroach (504 h, 21 day); 0% in the data set with Cotton Aphid; 100% with Aster Leafhopper. Also, the inhibition at 400 ppm in the data set on Beet Armyworm is 100%; in the data set with German Cockroach (168 h, 7 day), 0%; with German Cockroach (504 h, 21 day), 60%; in the data set on Cotton Aphid, 0%; in the data set with Aster Leafhopper, 100%; in the data set with Southern Corn Rootworm it was 60%. The inhibition at 400 ppm with Tobacco Budworm, with Rootknot Nematode and with Two-spotted Spider Mite was 100% in each case. In addition, the inhibition at 50 ppm with Tobacco Budworm came to 100%; in the data set on Two-spotted Spider Mite it was 0%. The median lethal concentration (LC50) (as a rule, the concentration that kills 50% of the test population) in the data set on neonate tobacco budworm is 9.8 µg/mL (≈ 13.9 µM).

Consider `CCC1CCCC(OC2CCC(N(C)C)C(C)O2)C(C)C(=O)C2=CC3C(C=C(C)C4CC(OC5OC(C)C(O)C(OC)C5OC)CC43)C2CC(=O)O1` (stereo not shown) [A83543O], for which the inhibition at 200 ppm came to 100% in the data set on Beet Armyworm; 0% in the data set on German Cockroach (168 h, 7 day); 20% in the data set on German Cockroach (504 h, 21 day); 0% in the data set on Cotton Aphid; 100% with Aster Leafhopper; 0% in the data set with Southern Corn Rootworm. Moreover, the results for the inhibition at 200 ppm in the data set on Tobacco Budworm, in the data set on Rootknot Nematode and in the data set on Two-spotted Spider Mite were 100%, 0% and 100%, respectively. For the same compound, the inhibition at 400 ppm was found to be 100% in the data set with Beet Armyworm; 0% in the data set with German Cockroach (168 h, 7 day); 100% in the data set with German Cockroach (504 h, 21 day); 100% in the data set on Cotton Aphid; 100% in the data set on Aster Leafhopper; 0% with Southern Corn Rootworm. Further, the inhibition at 400 ppm in the data set on Tobacco Budworm came to 100%; in the data set on Rootknot Nematode it was 0%; in the data set on Two-spotted Spider Mite, 100%. The mortality (commonly the share of the test organisms that died) at 5 ppm in the data set on adult stable fly (5 ppm) is 100%. Further, the 50% lethal concentration (LC50) in the data set with neonate tobacco budworm amounted to 1.4 µg/mL (≈ 1.91 µM).

As for `CCC1CCCC(OC2CCC(N(C)C)C(C)O2)C(C)C(=O)C2=CC3C(C=CC4CC(OC5OC(C)C(O)C(OC)C5OC)CC43)C2CC(=O)O1` (stereo not shown) [A83543K], the inhibition at 200 ppm in the data set with Beet Armyworm turned out to be 100%; with German Cockroach (168 h, 7 day) it was 0%; with German Cockroach (504 h, 21 day), 0%; in the data set on Cotton Aphid, 0%; in the data set on Aster Leafhopper, 100%; with Southern Corn Rootworm, 0%. The inhibition at 200 ppm is 100% in the data set with Tobacco Budworm, 0% in the data set with Rootknot Nematode and 90% in the data set with Two-spotted Spider Mite. The inhibition at 400 ppm amounted to 100% in the data set on Beet Armyworm; 0% in the data set on German Cockroach (168 h, 7 day); 80% in the data set on German Cockroach (504 h, 21 day); 0% in the data set on Cotton Aphid; 100% in the data set with Aster Leafhopper; 100% in the data set with Southern Corn Rootworm. The inhibition at 400 ppm with Tobacco Budworm turned out to be 100%; in the data set on Rootknot Nematode, 0%; in the data set with Two-spotted Spider Mite, 100%. Further, in the data set on blowfly larvae (2.5 ppm), the “% mortality” value was determined as 40%. Also, in the data set with adult stable fly (2.5 ppm), the mortality at 2.5 ppm was determined as 90%. The same compound displayed a 50% lethal concentration (LC50) in the data set with neonate tobacco budworm of 3.5 µg/mL (≈ 4.88 µM).

On to `COC1C(OC2CC3C=CC4C5CC(=O)OC(C)CCCC(OC6CCC(N(C)C)C(C)O6)C(C)C(=O)C5=CC4C3C2)OC(C)C(O)C1OC` (stereo not shown) [A83543Y], for which the inhibition at 200 ppm in the data set on Beet Armyworm stood at 80%; in the data set on German Cockroach (168 h, 7 day) it was 0%; with Cotton Aphid, 0%; in the data set on Aster Leafhopper, 60%; in the data set on Southern Corn Rootworm it was 0%. The inhibition at 400 ppm in the data set with Beet Armyworm came out at 100%; with German Cockroach (168 h, 7 day), 0%; in the data set with Cotton Aphid, 0%; with Aster Leafhopper, 80%; in the data set on Southern Corn Rootworm, 0%; in the data set on Tobacco Budworm, 100%. The inhibition at 400 ppm in the data set on Two-spotted Spider Mite turned out to be 100%. Moreover, the “% mortality” value in the data set with blowfly larvae (10.0 ppm) is 100%. Besides, the mortality at 10 ppm with adult stable fly turned out to be 90%. In addition, the inhibition at 50 ppm with Tobacco Budworm and in the data set on Two-spotted Spider Mite was 0% each time. This compound showed a 50% lethal concentration (LC50) with neonate tobacco budworm of 20 µg/mL (≈ 28.4 µM).

Consider `CCC1CCCC(OC2CCC(N(C)C)C(C)O2)C(C)C(=O)C2=CC3C(C=CC4CC(OC5OC(C)C(O)C(OC)C5O)CC43)C2CC(=O)O1` (stereo not shown) [A83543U], for which the inhibition at 200 ppm with Beet Armyworm was determined as 100%; in the data set with German Cockroach (168 h, 7 day) it was 0%; in the data set with German Cockroach (504 h, 21 day), 0%; in the data set with Cotton Aphid, 0%; in the data set on Aster Leafhopper it was 100%; in the data set on Southern Corn Rootworm, 0%. Besides, the inhibition at 200 ppm in the data set on Rootknot Nematode and in the data set on Two-spotted Spider Mite was 0% throughout. For the same compound, the inhibition at 400 ppm in the data set with Beet Armyworm worked out at 100%; with German Cockroach (168 h, 7 day), 0%; in the data set on German Cockroach (504 h, 21 day), 0%; in the data set with Cotton Aphid it was 0%; in the data set on Aster Leafhopper it was 100%; with Southern Corn Rootworm, 0%. The inhibition at 400 ppm amounted to 100% in the data set on Tobacco Budworm, 0% in the data set with Rootknot Nematode and 0% in the data set on Two-spotted Spider Mite. Also, in the data set with Tobacco Budworm, the inhibition at 50 ppm is 100%. Besides, the LC50 in the data set with neonate tobacco budworm is 22 µg/mL (≈ 31.3 µM).

In the case of `CCC1CCCC(OC2CCC(N(C)C)C(C)O2)C(C)C(=O)C2=CC3C(C=CC4CC(OC5OC(C)C(O)C(O)C5OC)CC43)C2CC(=O)O1` (stereo not shown) [A83543P], the inhibition at 200 ppm in the data set on Beet Armyworm was determined as 100%; in the data set with German Cockroach (168 h, 7 day), 0%; in the data set with German Cockroach (504 h, 21 day) it was 20%; in the data set with Cotton Aphid, 0%; in the data set with Aster Leafhopper, 0%; in the data set with Southern Corn Rootworm it was 0%. Further, in the data set with Rootknot Nematode, the inhibition at 200 ppm worked out at 0%. The inhibition at 400 ppm with Beet Armyworm was 100%; in the data set on German Cockroach (168 h, 7 day) it was 0%; with German Cockroach (504 h, 21 day) it was 0%; in the data set with Cotton Aphid, 0%; in the data set with Aster Leafhopper, 0%; in the data set on Southern Corn Rootworm, 0%. For the same compound, the inhibition at 400 ppm was determined as 100% in the data set on Tobacco Budworm, 0% in the data set with Rootknot Nematode and 100% in the data set with Two-spotted Spider Mite. The “% mortality” value in the data set on blowfly larvae (10.0 ppm) came out at 10%. Further, the mortality at 10 ppm in the data set on adult stable fly stood at 90%. Besides, the inhibition at 50 ppm is 0% with Tobacco Budworm and 100% in the data set on Two-spotted Spider Mite. In the data set with neonate tobacco budworm, this compound came in with an LC50 above 64 µg/mL.

Consider `CCC1CCCC(OC2CCC(N(C)C)C(C)O2)C(C)C(=O)C2=CC3C(C=C(C)C4CC(OC5OC(C)C(O)C(O)C5OC)CC43)C2CC(=O)O1` (stereo not shown) [A83543W], for which the inhibition at 200 ppm in the data set on Beet Armyworm was found to be 0%; in the data set with German Cockroach (168 h, 7 day), 0%; in the data set with German Cockroach (504 h, 21 day), 20%; in the data set with Cotton Aphid, 0%; in the data set with Aster Leafhopper, 0%; in the data set on Southern Corn Rootworm it was 0%. Moreover, in the data set on Rootknot Nematode, 200 ppm produced 0% inhibition. Besides, the inhibition at 400 ppm in the data set on Beet Armyworm is 60%; in the data set on German Cockroach (168 h, 7 day), 0%; with German Cockroach (504 h, 21 day), 0%; in the data set with Cotton Aphid, 0%; with Aster Leafhopper, 0%; in the data set on Southern Corn Rootworm, 0%. The inhibition at 400 ppm with Tobacco Budworm is 100%; in the data set on Rootknot Nematode, 0%; in the data set with Two-spotted Spider Mite, 80%. Further, in the data set on blowfly larvae (10.0 ppm), the “% mortality” value was determined as 0%. Moreover, the mortality at 10 ppm with adult stable fly came out at 40%. For the same compound, the inhibition at 50 ppm in the data set on Tobacco Budworm and with Two-spotted Spider Mite was 0% each time. Moreover, the 50% lethal concentration (LC50) with neonate tobacco budworm was above 64 µg/mL.
